Structures can show the parent of a compound that is named as a salt.

A short description of the series: collision cross section in nitrogen (drift tube, single-field); higher = larger gas-phase ion size.
The mark [1] stands for this setting: ion type: [M+H], ion source: APCI, ion mode: Positive.
Setting [2] is: ion type: [M+H], ion source: ESI, ion mode: Positive.
[3] abbreviates: ion type: [M+Na], ion source: ESI, ion mode: Positive.
Setting [4] is: ion type: [M-H], ion source: ESI, ion mode: Negative.
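Further: chemical standards at 10 µM analysed by drift tube IMS-QTOF MS in about 3.95 torr nitrogen, mean of duplicate injections differing ≤1%, mass error below 10 ppm.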

Regarding `CCc1cccc(C)c1N(C(=O)CCl)[C@@H](C)COC` [S-Metolachlor], the “collision cross section in nitrogen” value was determined as 159.5 Å² under setting [1], 160.1 Å² under setting [2] and 172.5 Å² under setting [3].
On to `Cc1cc(C)c(C=C2C(=O)Nc3ccccc32)[nH]1` [SU-5416], for which the “collision cross section in nitrogen” value is, setting by setting: under setting [1], 153.9 Å²; under setting [2], 154.2 Å²; (ion type: [M+], ion source: APCI, ion mode: Positive) 152.2 Å²; under setting [4], 158.4 Å².
For `O=C1NS(=O)(=O)c2ccccc21` [Saccharin], under setting [4], the “collision cross section in nitrogen” value was 131.1 Å².
In the case of `NC(=O)c1ccccc1O` [Salicylamide], the “collision cross section in nitrogen” value under setting [4] is listed as 122.2 Å².
Take `O=C(Nc1ccccc1)c1ccccc1O` [Salicylanilide]: the “collision cross section in nitrogen” value is, setting by setting: under setting [1], 144.8 Å²; under setting [4], 145.5 Å².
`O=C(NO)c1ccccc1O` [Salicylhydroxamic acid]: the “collision cross section in nitrogen” value under setting [4] was found to be 124.5 Å².
As to `O=C(O)c1ccccc1O` [Salicylic acid], the “collision cross section in nitrogen” value under setting [4] was 121.2 Å².
Turning to `O=C(O)c1cn(-c2ccc(F)cc2)c2cc(N3CCNCC3)c(F)cc2c1=O` [Sarafloxacin], the “collision cross section in nitrogen” value reads like this: under setting [1], 188.2 Å²; under setting [2], 188.3 Å²; under setting [3], 204.8 Å².
Take `C=C[C@](C)(O)CC[C@@H]1[C@@]2(C)CCCC(C)(C)[C@@H]2CC[C@@]1(C)O` [Sclareol]: the “collision cross section in nitrogen” value is, setting by setting: under setting [3], 189.2 Å²; under setting [4], 178.9 Å².
Consider `CN1[C@@H]2C[C@@H](OC(=O)[C@H](CO)c3ccccc3)C[C@H]1[C@@H]1O[C@@H]12` [Scopolamine hydrobromide], for which the “collision cross section in nitrogen” value reads like this: under setting [1], 170.8 Å²; under setting [2], 171.7 Å².
The matching figures for `CN1[C@@H]2C[C@@H](OC(=O)[C@H](CO)c3ccccc3)C[C@H]1[C@@H]1O[C@@H]12` [Scopolamine hydrochloride]: 172.2 Å² and 171.7 Å².
For the compound `CCNc1nc(NC(C)CC)nc(OC)n1` (centres undefined) [Secbumeton], the “collision cross section in nitrogen” value under setting [1] is given as 155.3 Å², the “collision cross section in nitrogen” value under setting [2] worked out at 155.2 Å² and the “collision cross section in nitrogen” value under setting [3] is 172.2 Å².
`CCCC(=NOCC)C1=C(O)CC(CC(C)SCC)CC1=O` (centres undefined) [Sethoxydim]: the “collision cross section in nitrogen” value runs as follows: under setting [1], 181.6 Å²; under setting [2], 181 Å²; under setting [4], 178.5 Å².
For `CCNc1nc(Cl)nc(NCC)n1` [Simazine], the “collision cross section in nitrogen” value is, setting by setting: under setting [1], 143.3 Å²; under setting [2], 144 Å².
For the compound `CCNc1nc(NCC)nc(SC)n1` [Simetryn], the “collision cross section in nitrogen” value is given as 149.6 Å² under setting [1] and 149.5 Å² under setting [2].
`CC(C)COC(=O)CC(C(=O)OCC(C)C)S(=O)(=O)O` (centres undefined) [Sodium 1,4-diisobutyl sulfosuccinate]: the “collision cross section in nitrogen” value under setting [4] stood at 174.4 Å².
With `O=S(=O)(O)c1cccc2ccccc12` [Sodium 1-naphthalenesulfonate], under setting [4], the “collision cross section in nitrogen” value stood at 141.6 Å².
On to `Cc1ccc(C)c(S(=O)(=O)O)c1` [Sodium 2,5-dimethylbenzenesulfonate], for which the “collision cross section in nitrogen” value under setting [4] is reported as 138.5 Å².
As to `O=S(=O)(O)CCN1CCN(CCO)CC1` [Sodium 2-[4-(2-hydroxyethyl)piperazin-1-yl]ethanesulfonate], the “collision cross section in nitrogen” value runs as follows: under setting [2], 151.1 Å²; under setting [3], 167.9 Å².
Take `O=C1c2ccccc2C(=O)c2cc(S(=O)(=O)O)ccc21` [Sodium 2-anthraquinonesulfonate]: the “collision cross section in nitrogen” value under setting [4] is listed as 162 Å².
For `O=Cc1ccccc1S(=O)(=O)O` [Sodium 2-formylbenzenesulfonate], under setting [4], the “collision cross section in nitrogen” value was 130.9 Å².
Consider `Sc1nc2ccccc2s1` [Sodium 2-mercaptobenzothiolate], for which the “collision cross section in nitrogen” value under setting [4] came to 127.7 Å².
As to `COc1ccc([N+](=O)[O-])cc1O` [Sodium 2-methoxy-5-nitrophenolate], the “collision cross section in nitrogen” value under setting [4] amounted to 129.6 Å².
Regarding `Cc1ccccc1S(=O)(=O)O` [Sodium 2-methylbenzenesulfonate], the “collision cross section in nitrogen” value under setting [4] came out at 131.7 Å².
With `C=C(C)CS(=O)(=O)O` [Sodium 2-methylprop-2-ene-1-sulfonate], under setting [4], the “collision cross section in nitrogen” value is listed as 124.2 Å².
Consider `O=[N+]([O-])c1ccccc1O` [Sodium 2-nitrophenolate], for which the “collision cross section in nitrogen” value under setting [4] came out at 121.6 Å².
As for `Oc1ccccc1-c1ccccc1` [Sodium 2-phenylphenate tetrahydrate], under setting [4], the “collision cross section in nitrogen” value came to 136.6 Å².
For the compound `O=C(O)c1cccc([N+](=O)[O-])c1` [Sodium 3-nitrobenzoate], the “collision cross section in nitrogen” value under setting [4] was determined as 131.2 Å².
Same read-out and setting: for `CC(C)c1ccc(S(=O)(=O)O)cc1` [Sodium 4-isopropylbenzenesulfonate] the value was 147.5 Å²; for `Cc1ccc(S(=O)(=O)O)cc1` [Sodium 4-methylbenzenesulfonate], 135.2 Å².
Take `O=[N+]([O-])c1ccc(O)cc1` [Sodium 4-nitrophenolate]: the “collision cross section in nitrogen” value under setting [4] was 120.5 Å².
On the same count and under the same terms, with `CCCCCCCCc1ccc(S(=O)(=O)O)cc1` [Sodium 4-octylbenzenesulfonate] the figure was 173.9 Å²; with `O=S(=O)(O)c1ccc2cc(O)ccc2c1` [Sodium 6-hydroxynaphthalene-2-sulfonate], 148.7 Å²; with `N[C@@H](CCC(=O)O)C(=O)O` [Sodium L-glutamate hydrate], 125.4 Å².
With `CC(C)C1=CC2=CC[C@@H]3[C@](C)(CCC[C@@]3(C)C(=O)O)[C@H]2CC1` [Sodium abietate], under setting [4], the “collision cross section in nitrogen” value is 182 Å².
As to `COc1cccc2c1cc([N+](=O)[O-])c1c(C(=O)O)cc3c(c12)OCO3` [Sodium aristolochate-I], the “collision cross section in nitrogen” value under setting [3] is given as 185.6 Å².
In the case of `[O-][Cl+]O` [Sodium chlorite], under setting [4], the “collision cross section in nitrogen” value is 105.2 Å².
Regarding `CCCCCCCCCCOS(=O)(=O)O` [Sodium decyl sulfate], the “collision cross section in nitrogen” value under setting [4] is 158.1 Å².
Turning to `CC(C)CP(=S)(S)CC(C)C` [Sodium diisobutyldithiophosphinate], the “collision cross section in nitrogen” value under setting [4] was 146.5 Å².
As for `CCCCCCCCCCCCc1ccccc1S(=O)(=O)O` [Sodium dodecylbenzenesulfonate], the “collision cross section in nitrogen” value is, setting by setting: under setting [3], 167.5 Å²; under setting [4], 186.3 Å².
`CCCCC(CC)COS(=O)(=O)O` (centres undefined) [Sodium ethasulfate hydrate]: the “collision cross section in nitrogen” value under setting [4] turned out to be 150.1 Å².
For the compound `CCCCC(CC)COS(=O)(=O)O` (centres undefined) [Sodium ethasulfate], the “collision cross section in nitrogen” value under setting [4] is reported as 150.5 Å².
Take `C=CS(=O)(=O)O` [Sodium ethenesulfonate]: the “collision cross section in nitrogen” value under setting [4] amounted to 113.6 Å².
With `CCCCCCCCCCCCCCCCOS(=O)(=O)O` [Sodium hexyldecyl sulfate], the “collision cross section in nitrogen” value under setting [4] turned out to be 181.3 Å².
Take `Cc1ccc(S(=O)(=O)O)c(C)c1` [Sodium m-xylene-4-sulfonate]: under setting [4], the “collision cross section in nitrogen” value came to 138.9 Å².
With `COS(=O)(=O)O` [Sodium methyl sulfate], the “collision cross section in nitrogen” value under setting [4] was determined as 113.1 Å².
On the same count and under the same terms, with `CCCCCCCCCCCCCCOS(=O)(=O)O` [Sodium myristyl sulfate] the figure was 173.4 Å².
As for `O=C(O)c1cccnc1` [Sodium nicotinate], the “collision cross section in nitrogen” value is, setting by setting: under setting [1], 123.5 Å²; under setting [2], 124.5 Å².
For `CCCCCCCCCOS(=O)(=O)O` [Sodium nonyl sulfate], the “collision cross section in nitrogen” value under setting [4] is reported as 154.5 Å².
With `CCCCCCCCOS(=O)(=O)O` [Sodium octyl sulfate], under setting [4], the “collision cross section in nitrogen” value is on record as 151.3 Å².
`CC(C)(CO)[C@@H](O)C(=O)NCCC(=O)O` [Sodium pantothenate]: the “collision cross section in nitrogen” value is 151.2 Å² under setting [3] and 147.1 Å² under setting [4].
Consider `F[B-](F)(F)F` [Sodium tetrafluoroborate], for which the “collision cross section in nitrogen” value (ion source: ESI, ion mode: Negative, ion type: [M]- (permanent anion)) was 101 Å².
In the case of `CCCCCCCCCCCCCOS(=O)(=O)O` [Sodium tridecyl sulfate], the “collision cross section in nitrogen” value under setting [4] is given as 170 Å².
Take `CCCC(CCC)C(=O)O` [Sodium valproate]: the “collision cross section in nitrogen” value under setting [4] turned out to be 137 Å².
Consider `CC(=O)CC(c1ccccc1)c1c(O)c2ccccc2oc1=O` (centres undefined) [Sodium warfarin], for which the “collision cross section in nitrogen” value is, setting by setting: under setting [1], 167.1 Å²; under setting [2], 167 Å²; under setting [3], 178.6 Å²; under setting [4], 172.5 Å².
In the case of `CCCCCCCC/C=C\CCCCCCCC(=O)OC[C@@H](O)[C@H]1OC[C@H](O)[C@H]1O` [Sorbitan, mono-(9Z)-9-octadecenoate], the “collision cross section in nitrogen” value came to 211.8 Å² under setting [3] and 207.7 Å² under setting [4].
Regarding `C[C@@H]1CN(c2c(F)c(N)c3c(=O)c(C(=O)O)cn(C4CC4)c3c2F)C[C@H](C)N1` [Sparfloxacin], the “collision cross section in nitrogen” value under setting [2] stood at 190.2 Å².
For `CCC(C)(C)C(=O)OC1=C(c2ccc(Cl)cc2Cl)C(=O)OC12CCCCC2` [Spirodiclofen], the “collision cross section in nitrogen” value under setting [3] stood at 209.5 Å².
In the case of `CCOC(=O)OC1=C(c2cc(C)ccc2C)C(=O)N[C@]12CC[C@@H](OC)CC2` [Spirotetramat], the “collision cross section in nitrogen” value is, setting by setting: under setting [1], 190.2 Å²; under setting [2], 189.3 Å²; under setting [3], 202.3 Å².
With `CCCN(CC)CC1COC2(CCC(C(C)(C)C)CC2)O1` (centres undefined) [Spiroxamine], under setting [2], the “collision cross section in nitrogen” value is on record as 176.6 Å².
Consider `O=C1C[C@@H]2OCC=C3CN4CC[C@]56c7ccccc7N1[C@H]5[C@H]2[C@H]3C[C@H]46` [Strychnine hemisulphate salt], for which the “collision cross section in nitrogen” value stood at 172.6 Å² under setting [1] and 175.8 Å² under setting [2].
